# Experimental data: patent US9909107B2, “Brassica AHAS genes and gene alleles that provide resistance to imidazolinone herbicides” (priority 2004, dated 2018)
# Where “and” joins values, the source holds several entries; their conditions need not be identical. Identical values can stand only once.
# Assays:
# [1] = test system: AHAS enzyme in leaf discs of Susceptible check (B. juncea variety 'Arid'); assay: AHAS activity assay of leaf discs, susceptible check; assay type: biochemical, Brassica juncea
# Protocol: (§1) Leaf discs were removed from seedling leaves of J04E-0044 and subjected to an assay of AHAS activity, as described by Singh et al. (Anal. Biochem. 171: 173-179, 1988). The assay measures AHAS activity by estimating the amount of product, acetolactate, after conversion by decarboxylation in the presence of acid to acetoin. The assay compares the AHAS activity in two leaf discs. The control leaf disc was incubated in 10 mM phosphate buffer (pH 6.0) containing 50 mM pyruvate, 500 uM cyclopropane dicarboxylic acid (CPCA), 10% M&S salts and 0.5% alanine. The other leaf disc was in the same buffer in the presence of 2.5 uM imazamox, an imidazolinone herbicide. The herbicide normally binds to the AHAS enzyme and inhibits activity. The incubations were carried out at 22° C. for 16 hrs followed by measuring the absorbance at A530 nm. A completely herbicide susceptible plant will have an AHAS activity level near zero when exposed to an inhibitory herbicide, while a tolerant plant will have AHAS activity nearly equal to that of the control. A plant with a mutated AHAS gene in one genome but not the other will have intermediate AHAS activity in the present of enzyme inhibitor. The procedure was modified to include the addition of cydopropane dicarboxylic acid (CPCA), which prevents the further conversion of acetolactate to valine and leucine. In addition to an imidazolinone herbicide as an inhibitor, a sulfonylurea herbicide (chlorsulfuron) was also used on separate leaf discs to test for cross-tolerance in the same way except that 0.2 uM chlorsulfuron was used instead of 2.5 uM imazamox. In this table, the line PM1 is a B. napus variety with a mutation affecting the AHAS1 gene in the C genome only and PM2 is a B. napus variety with a mutation in the AHAS3 gene, located in the A genome. Susceptible check is a commercial B. juncea variety.
# [2] = target: T1, AHAS enzyme in leaf discs of PM1 (mutation affecting the AHAS1 gene in the C genome) (Brassica napus, UniProt P27818, S638N); assay: AHAS activity assay of leaf discs, line PM1; assay type: biochemical; details: for tolerance provided by the mutation (in words): PM1 mutation
# T1 construct: Relative AHAS activity of leaf discs exposed; from tissue; host or cells: leaf discs of B. napus line PM1
# Protocol: as §1
# [3] = test system: AHAS enzyme in leaf discs of J04E-0044 (BjAHAS-bR mutant allele); assay: AHAS activity assay of leaf discs, line J04E-0044; assay type: biochemical, Brassica juncea; details: for tolerance provided by the mutation (in words): mutation in B. juncea variety J04E-0044
# Protocol: as §1
# [4] = target: T2, AHAS enzyme in leaf discs of PM2 (mutation in the AHAS3 gene, A genome) (Brassica napus, UniProt P27819, W556L); assay: AHAS activity assay of leaf discs, line PM2; assay type: biochemical; details: for tolerance provided by the mutation (in words): PM2 mutation in the A genome
# T2 construct: Relative AHAS activity of leaf discs exposed; from tissue; host or cells: leaf discs of B. napus line PM2
# Protocol: as §1
# T2 sequence (P27819 70-652 W556L): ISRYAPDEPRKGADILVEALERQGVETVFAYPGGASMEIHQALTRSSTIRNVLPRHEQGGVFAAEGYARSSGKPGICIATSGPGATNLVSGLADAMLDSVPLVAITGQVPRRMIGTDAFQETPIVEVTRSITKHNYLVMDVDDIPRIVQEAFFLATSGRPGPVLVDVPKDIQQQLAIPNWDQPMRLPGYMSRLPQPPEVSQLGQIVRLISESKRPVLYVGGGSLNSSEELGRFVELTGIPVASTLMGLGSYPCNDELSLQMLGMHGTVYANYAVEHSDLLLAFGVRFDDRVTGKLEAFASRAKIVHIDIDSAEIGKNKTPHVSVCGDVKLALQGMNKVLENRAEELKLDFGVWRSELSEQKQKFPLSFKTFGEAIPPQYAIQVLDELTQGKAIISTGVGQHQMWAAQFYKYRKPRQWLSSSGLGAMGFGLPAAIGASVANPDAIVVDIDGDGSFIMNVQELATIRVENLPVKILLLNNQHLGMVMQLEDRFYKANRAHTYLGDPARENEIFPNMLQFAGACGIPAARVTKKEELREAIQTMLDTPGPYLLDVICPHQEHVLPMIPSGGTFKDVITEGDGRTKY
# T1 sequence (P27818 83-655 S638N): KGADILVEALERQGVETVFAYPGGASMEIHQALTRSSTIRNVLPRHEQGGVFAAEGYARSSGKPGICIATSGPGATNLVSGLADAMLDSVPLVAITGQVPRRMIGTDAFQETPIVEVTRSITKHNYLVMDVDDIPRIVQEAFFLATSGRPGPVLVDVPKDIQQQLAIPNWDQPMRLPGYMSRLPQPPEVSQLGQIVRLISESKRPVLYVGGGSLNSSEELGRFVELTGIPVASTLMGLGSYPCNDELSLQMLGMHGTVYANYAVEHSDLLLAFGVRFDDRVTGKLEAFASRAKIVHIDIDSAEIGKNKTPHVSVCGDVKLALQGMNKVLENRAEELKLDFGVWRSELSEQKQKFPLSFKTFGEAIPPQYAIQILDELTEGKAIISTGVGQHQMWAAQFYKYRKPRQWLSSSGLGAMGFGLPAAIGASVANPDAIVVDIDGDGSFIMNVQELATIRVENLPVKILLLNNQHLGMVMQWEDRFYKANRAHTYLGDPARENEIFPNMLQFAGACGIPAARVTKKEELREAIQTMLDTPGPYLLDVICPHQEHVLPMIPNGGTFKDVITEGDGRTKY
Structure (SMILES),"Relative AHAS activity with chlorsulfuron (0-1) ([1]; Susceptible check leaf disc, 0.2 uM chlorsulfuron vs control disc, 22° C., 16 hrs, scale 0-1)",tolerance provided by the mutation (in words) [2],tolerance provided by the mutation (in words) [3],tolerance provided by the mutation (in words) [4],AHAS activity in the presence of an imidazolinone herbicide relative to without the inhibitor ([1]; Arid (susceptible check)),"Relative AHAS activity with imidazolinone (0-1) ([1]; Susceptible check leaf disc, 2.5 uM imazamox vs control disc, 22° C., 16 hrs, scale 0-1)","Relative AHAS activity with imidazolinone (0-1) ([2]; PM1 leaf disc, 2.5 uM imazamox vs control disc, 22° C., 16 hrs, scale 0-1, assays #1-3)","relative AHAS activity ([3]; J04E-0044, imidazolinone as AHAS activity inhibitor (Table 1))","Relative AHAS activity with imidazolinone (0-1) ([3]; J04E-0044 leaf disc, 2.5 uM imazamox vs control disc, 22° C., 16 hrs, scale 0-1, assays #1-3)","Relative AHAS activity with imidazolinone (0-1) ([4]; PM2 leaf disc, 2.5 uM imazamox vs control disc, 22° C., 16 hrs, scale 0-1, assays #1-2)"
COc1nc(C)nc(NC(=O)NS(=O)(=O)c2ccccc2Cl)n1 [chlorsulfuron],0.029,no tolerance,little tolerance,tolerance,,,,,,
"COCc1cnc(C2=NC(C)(C(C)C)C(=O)N2)c(C(=O)O)c1 (stereo not shown) [imidazolinone, imazamox]",,less tolerance,tolerance equal to that of PM2,tolerance,less than 2%,0.018,0.256 and 0.292 and 0.276,70% and 79% and 91%,0.703 and 0.793 and 0.919,0.607 and 0.722
